Series [1] has as its target PXR (Homo sapiens (Human), UniProt O75469). The experiment in a line: Human PXR activation assay (luciferase reporter gene assay, DPX2 cells). The series is classed as cell-based. The settings on record: human. On the procedure:
A stably transformed tumor cell line (DPX2) was plated on 96-well microtiter plates. DPX2 cells harbor the human PXR gene (NR112) and a luciferase reporter gene linked to two promoters identified in the human CYP3A4 gene, namely XREM and PXRE. […] The number of viable cells was determined and the reporter gene activity was assessed. Positive control: […]

The nature of series [2]: in vitro. The following applies: human, CC50 nM in MT-4.

PXR, sequence (O75469 whole entry): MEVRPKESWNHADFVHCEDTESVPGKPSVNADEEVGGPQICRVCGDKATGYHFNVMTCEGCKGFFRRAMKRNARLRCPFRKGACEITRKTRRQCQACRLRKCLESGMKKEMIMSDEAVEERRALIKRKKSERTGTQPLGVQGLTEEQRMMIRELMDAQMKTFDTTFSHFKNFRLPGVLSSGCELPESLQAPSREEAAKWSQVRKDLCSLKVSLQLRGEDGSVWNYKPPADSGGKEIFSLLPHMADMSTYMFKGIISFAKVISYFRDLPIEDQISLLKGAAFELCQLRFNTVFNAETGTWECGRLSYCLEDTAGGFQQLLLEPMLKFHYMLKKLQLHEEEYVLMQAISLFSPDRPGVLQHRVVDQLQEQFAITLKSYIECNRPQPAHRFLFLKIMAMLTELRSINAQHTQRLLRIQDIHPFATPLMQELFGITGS

In series [1], `O=C(NCc1c(F)cc(F)cc1F)c1cn2c(c(O)c1=O)C(=O)N1[C@H]3CCC[C@H](C3)[C@H]1C2` [Compound 85, (6aS,7R,11S)-1-hydroxy-2,13-dioxo-N-(2,4,6-trifluorobenzyl)-6,6a,7,8,9,10,11,13-octahydro-2H-7,11-methanopyrido[1′,2′:4,5]pyrazino[1,2-a]azepine-3-carboxamide] registered an Emax at 24 h, 15 µM of 77%. In addition, in series [2], the CC50 at 5 days was found to be 10400 nM.
Consider `C[C@H]1C[C@@H]2C[C@H]1N1C(=O)c3c(O)c(=O)c(C(=O)NCc4c(F)cc(F)cc4F)cn3C[C@H]21` [Compound 86, (1R,3S,4R,12aS)-7-hydroxy-3-methyl-6,8-dioxo-N-(2,4,6-trifluorobenzyl)-1,2,3,4,6,8,12,12a-octahydro-1,4-methanodipyrido[1,2-a:1′,2′-d]pyrazine-9-carboxamide], for which, in series [1], the Emax at 24 h, 15 µM is 30%. The same compound registered a CC50 at 5 days in series [2] of 22400 nM.
The compound `O=C(NCc1cccc(Cl)c1F)c1cn2c(c(O)c1=O)C(=O)N1[C@H]3CC[C@H](C3)O[C@@H]1C2` [Compound 88, (2R,5S,13aR)-N-(3-chloro-2-fluorobenzyl)-8-hydroxy-7,9-dioxo-2,3,4,5,7,9,13,13a-octahydro-2,5-methanopyrido[1′,2′:4,5]pyrazino[2,1-b][1,3]oxazepine-10-carboxamide] came in with an Emax at 24 h, 15 µM in series [1] of 27%. The compound also showed a CC50 at 5 days in series [2] of 3230 nM.
In turn, `O=C(NCc1cc(F)ccc1F)c1cn2c(c(O)c1=O)C(=O)N1[C@H]3CC[C@H](C3)O[C@@H]1C2` [Compound 89, (2R,5S,13aR)-N-(2,5-difluorobenzyl)-8-hydroxy-7,9-dioxo-2,3,4,5,7,9,13,13a-octahydro-2,5-methanopyrido[1′,2′:4,5]pyrazino[2,1-b][1,3]oxazepine-10-carboxamide] returned an Emax at 24 h, 15 µM in series [1] of 5%. In addition, the CC50 at 5 days in series [2] turned out to be 4630 nM.
For `O=C(NCc1cccc(Cl)c1F)c1cn2c(c(O)c1=O)C(=O)N1[C@H]3CC[C@H](C3)[C@@H]1C2` [Compound 90, (1R,4S,12aR)-N-(3-chloro-2-fluorobenzyl)-7-hydroxy-6,8-dioxo-1,2,3,4,6,8,12,12a-octahydro-1,4-methanodipyrido[1,2-a:1′,2′-d]pyrazine-9-carboxamide] the same measures were 11% and 8090 nM.
For `O=C(NCc1ccc(F)c(F)c1F)c1cn2c(c(O)c1=O)C(=O)N1[C@H]3CC[C@H](C3)[C@@H]1C2` [Compound 91, (1R,4S,12aR)-7-hydroxy-6,8-dioxo-N-(2,3,4-trifluorobenzyl)-1,2,3,4,6,8,12,12a-octahydro-1,4-methanodipyrido[1,2-a:1′,2′-d]pyrazine-9-carboxamide] the same measures were 3% and 7180 nM.
`O=C(NCc1ccc(Cl)cc1F)c1cn2c(c(O)c1=O)C(=O)N1[C@H]3CC[C@H](C3)[C@@H]1C2` [Compound 92, (1R,4S,12aR)-N-(4-chloro-2-fluorobenzyl)-7-hydroxy-6,8-dioxo-1,2,3,4,6,8,12,12a-octahydro-1,4-methanodipyrido[1,2-a:1′,2′-d]pyrazine-9-carboxamide] registered an Emax at 24 h, 15 µM in series [1] of 3%. Also, in series [2], the CC50 at 5 days worked out at 4550 nM.
With `O=C(NCc1c(F)cc(F)cc1Cl)c1cn2c(c(O)c1=O)C(=O)N1[C@H]3CC[C@H](C3)[C@@H]1C2` [Compound 93, (1R,4S,12aR)-N-(2-chloro-4,6-difluorobenzyl)-7-hydroxy-6,8-dioxo-1,2,3,4,6,8,12,12a-octahydro-1,4-methanodipyrido[1,2-a:1′,2′-d]pyrazine-9-carboxamide], the Emax at 24 h, 15 µM in series [1] amounted to 9%. For the same compound, the CC50 at 5 days in series [2] was 6160 nM.

Source of the values: US9663528B2, “Substituted 1,2,3,4,6,8,12,12a-octahydro-1,4-methanodipyrido[1,2-a:1',2'-d]pyrazines and methods for treating viral infections” (priority 2012, dated 2017).
